Counter-ions that a name gives are not always drawn.
What was measured:
Solubility in water = settings: for solubility (in words): comparison with tyrosine, refers to table 1; for solubility at 20° C. / solubility at 25° C. / solubility at 30° C.: in water
Recombinant CHO cells [1] = test: Fed batch process with neutral pH feed containing phospho-Tyr salts, 30 mL spin tubes; format: cell-based; settings: 30 mM in feed at pH 7.0; control tyrosine 2Na+ and Cysteine in separate feed at pH 11
Method: FIGS. 5 and 6 show the viable cell density and IgG concentration over time in a fed batch process. Recombinant CHO cells are grown in fully chemically defined basal media and a feed containing phospho-Tyr salts at pH 7.0 is added on day 3; 5, 7 and 9 (addition of % v/v of 3%; 6% 6% 6%). […]. In these cases, Cysteine is still added as a separate feed at pH 11.
The process is performed in 30 mL spin tubes at 37° C., 5% CO2, agitation 320 rpm. For control, according to the state of the art, tyrosine 2Na+ and Cysteine are solubilized at pH 11 in a separate feed and added at day 3; 5; 7; 9 in %(V/V) of 0.3%, 0.6%, 0.6% and 0.6%.
The glucose concentration is measured every day and adjusted accordingly to maintain a concentration>2 g/L

cells [2] = test: Batch experiment in chemically defined medium where Cysteine was replaced by S-sulfocysteine sodium salt; format: cell-based; settings: 1.5 and 3 mM, equivalent concentration to Cysteine
Method: Batch experiment in chemically defined medium where Cysteine was replaced by S-sulfocysteine sodium salt (equivalent concentration). The CDM powder used as basis was depleted in Cysteine and Cystine and supplemented during reconstitution with Cysteine for the control conditions (1.5 and 3 mM) or with S-sulfocysteine sodium salt for the test conditions (1.5 and 3 mM).

Recombinant CHO cells [3] = test: Fed batch process with feed containing S-sulfocysteine and PTyr 2Na+ at pH 7.0, 1.2 L bioreactors; format: cell-based; settings: main feed pH 7.0, in combination with PTyr 2Na+; control tyrosine 2Na+ and Cysteine at pH 11
Method: FIGS. 7 and 8 show the viable cell density and IgG concentration over time in a fed batch process. Recombinant CHO cells are grown in fully chemically defined basal media and a feed containing both S-sulfocysteine and PTyr 2Na+ at pH 7.0. Feed is added on day 3; 5, 7, 9 and 14 (addition of % v/v of 3%; 6% 6% 6%, 3%). The process is performed in 1.2 L bioreactors at 37° C., pH 7.0, 50% dissolved oxygen, agitation 140 rpm. For control, according to the state of the art, tyrosine 2Na+ and Cysteine are solubilized at pH 11 in a separate feed and added at day 3; 5; 7; 9, 14 in %(V/V) of 0.3%, 0.6%, 0.6%, 0.6%, 0.3%. The glucose concentration is measured every day and adjusted accordingly to maintain a concentration>2 g/L

cells [4] = test: Batch experiment in chemically defined medium where tyrosine was replaced by PTyr salts; format: cell-based
From the text: Batch experiment in chemically defined medium where tyrosine was replaced by PTyr salts. PTyr means (S)-2-Amino-3-(4-phosphonooxy-phenyl)-propionic-acid salt.

| Molecule | solubility (in words) (Solubility in water) | solubility at 20° C. (Solubility in water) | solubility at 25° C. (Solubility in water) | solubility at 30° C. (Solubility in water) | impact on growth (viable cell density) (Recombinant CHO cells [1]) | impact on titer (IgG concentration) (Recombinant CHO cells [1]) | further results |
| --- | --- | --- | --- | --- | --- | --- | --- |
| N[C@@H](Cc1ccc(OP(=O)([O-])O)cc1)C(=O)O.[Na+] [D3] | higher solubility | 5.5% | 5.3% | 11.4% |  |  |  |
| N[C@@H](Cc1ccc(OP(=O)([O-])[O-])cc1)C(=O)O.[Na+].[Na+] [D4] | very good solubility | 9.8% | 10.1% | 9.2% | no negative impact | no negative impact |  |
| N[C@@H](Cc1ccc(OP(=O)(O)O)cc1)C(=O)O [PTyr Magnesium salt, (S)-2-Amino-3-(4-phosphonooxy-phenyl)-propionic-acid 2:1-magnesium salt] |  |  |  |  | no negative impact | no negative impact |  |
| N[C@@H](Cc1ccc(OP(=O)([O-])O)cc1)C(=O)O.[K+] [PTyr Potassium salt, (S)-2-Amino-3-(4-phosphonooxy-phenyl)-propionic-acid mono potassium salt] |  |  |  |  | no negative impact | no negative impact |  |
| N[C@H](CSS(=O)(=O)[O-])C(=O)[O-].[Na+].[Na+] [S-sulfocysteine sodium salt, (S)-2-amino-3-sulfosulfanylpropanoic acid sodium salt] |  |  |  |  |  |  | cell growth versus Cysteine control (cells [2]): comparable growth; growth (viable cell density) in comparison to the control (Recombinant CHO cells [3]): extended growth; titer (IgG concentration) in comparison to the control (Recombinant CHO cells [3]): significant increase |
| (S)-2-Amino-3-(4-phosphonooxy-phenyl)-propionic-acid salt [PTyr] |  |  |  |  |  |  | maximum viable cell density versus control (cells [4]; PTyr 4.5 mM in the CDM versus 1 mM tyrosine in the control): even higher; extended growth (cells [4]; PTyr 4.5 mM in the CDM versus control): 2 days; cell growth (cells [4]; PTyr at the same concentration as Tyrosine in the medium (1 mM in the control)): cells didn't grow |
